These results are taken from publication PMC3744471, “Mitochondria Are the Target Organelle of Differentiation-Inducing Factor-3, an Anti-Tumor Agent Isolated from Dictyostelium Discoideum” (PLoS ONE, 2013).

SMILES strings stand for the structures. Read-outs that look alike come from different tables or passages of the source.

Test [1] concerns mouse liver mitochondria. Put plainly: Mitochondrial oxygen consumption (Clark-type oxygen electrode). Format: biochemical. As to the method:
Mitochondria were isolated from mouse liver (ICR; 7–10 week-old females) by differential centrifugation as described previously. Cells were homogenized in a Potter glass homogenizer with H-Buffer (250 mM sucrose, 10 mM Tris-HCl pH 7.4), and centrifuged at 800g for 1 min at 4°C. The supernatant was centrifuged at 6,000g for 5 min, and the resulting pellet, the crude mitochondrial fraction, was suspended in H-Buffer. The suspension was layered over a discontinuous sucrose gradient consisting of 1.1 M and 1.6 M sucrose in a Tris buffer (10 mM Tris-HCl pH 7.4), and centrifuged for 3 h at 90,000g at 4°C. The interface was collected in Tris buffer and centrifuged at 6,000g for 5 min. The resulting pellets were suspended in Tris buffer and used for experiments after confirming the presence of the mitochondrial marker cytochrome c.
Mitochondrial oxygen consumption was determined using a Clark-type oxygen electrode (Strathkelvin Instruments Ltd., North Lanarkshire, Scotland) as described, [39]. The mitochondria-enriched fraction was incubated at 30°C in oxygen measurement buffer (225 mM mannitol, 75 mM sucrose, 10 mM KCl, 0.1 mM EDTA, 3 mM phosphate, 5 mM succinate, 5 mM glutamate, and 20 mM Tris-HCl pH 7.4) in the presence or absence of various concentrations of the DIF-like molecules or CCCP. After recording ‘State 4’ of the respiration reaction, an aliquot of ADP was added to a final concentration of 200 µM to induce ‘State 3’. The PC100 (100% promoting concentration) of each additive was defined as the drug concentration that doubled the basal rate of oxygen consumption during State 3, which was calculated from the dose-response plot for the rate of oxygen consumption (Figure 8).

In test [2] the test system is 3T3-L1 cells. Put plainly: Cell growth assay (Alamar blue), 3T3-L1. Format: cell-based, mouse. The note with it: Mus musculus, 72 h; 3T3-L1 cells, 3 days, Alamar blue. As for the experimental part: (§1) HeLa, LM8, and 3T3-L1 cells were cultured for 3 days at 2.5–5×10^3 cells/well in 12-well plates with each well filled with 1 ml of DMEM-FBS (for HeLa and 3T3-L1) or MEM-α-FBS (for LM8) together with drugs at various concentrations. Then, the incubation media were discarded and the cells were washed with 1 ml of PBS(–) (20 mM phosphate buffered saline, pH 7.4) and incubated with 1 ml of fresh DMEM-FBS (HeLa and 3T3-L1) or MEM-α-FBS (LM8) containing 5% (v/v) of Alamar blue (a cell number indicator; Wako Pure Chemical Industries, Osaka, Japan) until the color changed. The relative cell number was assessed by measuring absorbance at 570 nm (reference at 595 nm) as described previously, [14]; DIF-related compounds and BODIPY-conjugated compounds hardly disturbed the cell number assessment with Alamar blue (data not shown), probably because the additive compounds were washed out when cell number was assessed. For determination of the 50% inhibitory concentration (IC50) of each drug, the cells were cultured for 3 days in the presence of each drug at various concentrations. Relative cell numbers were determined for each concentration for each drug and the IC50 was determined from the dose-response curves.
(§2) Supplementary file pone.0072118.s002.tif: Figure S2 Effects of BODIPY-DIF-3 and CCCP on cell growth, and cellular localization of BODIPY-DIF-3 in 3T3-L1 cells. (A) Cells were incubated for 4 days with 5–20 µM of BODIPY-DIF-3 (closed circles) or 2–10 µM of CCCP (closed triangles), and relative cell number was assessed by the use of Alamar blue. Data are the mean values and SD (bars) of three independent experiments. (B) Cells were incubated for 0.5 h or 3 days with 20 µM of BODIPY-DIF-3, washed free of the additive, and observed microscopically. (C) Cells were incubated for 0.5 h with BODIPY-DIF-3 (20 µM), Hoechst (0.1 µg/ml), and MitoTracker (0.1 µM), washed free of the additives, and observed by using a high-magnification fluorescence microscope. (D) Cells were incubated for 3 days with BODIPY-DIF-3 (20 µM) and then for 0.5 h with Hoechst (0.1 µg/ml) and MitoTracker (0.1 µM). Cells were washed free of the additives and observed by using a high-magnification fluorescence microscope. (TIF) Click here for additional data file.

For test [3], the system named is LM8 cells. Put plainly: Cell growth assay (Alamar blue), LM8. Format: cell-based, mouse. The note with it: Mus musculus, 72 h; LM8 cells, 3 days, Alamar blue. As to the method: as §1
as §2, with “pone.0072118.s001.tif:” for “pone.0072118.s002.tif:”, “S1” for “S2”, “LM8” for “3T3-L1”

For test [4], the system named is HeLa cells. Put plainly: Cell growth assay (Alamar blue), HeLa. Format: cell-based, human. As for the experimental part: HeLa, LM8, and 3T3-L1 cells were cultured for 3 days at 2.5–5×10^3 cells/well in 12-well plates with each well filled with 1 ml of DMEM-FBS (for HeLa and 3T3-L1) or MEM-α-FBS (for LM8) together with drugs at various concentrations. Then, the incubation media were discarded and the cells were washed with 1 ml of PBS(–) (20 mM phosphate buffered saline, pH 7.4) and incubated with 1 ml of fresh DMEM-FBS (HeLa and 3T3-L1) or MEM-α-FBS (LM8) containing 5% (v/v) of Alamar blue (a cell number indicator; Wako Pure Chemical Industries, Osaka, Japan) until the color changed. […] Relative cell numbers were determined for each concentration for each drug and the IC50 was determined from the dose-response curves.
(In general: Alamar Blue is a resazurin reagent that responds to reducing activity.)

For test [5], the system named is mitochondrial malate dehydrogenase (mMDH). More on the design: method as in PMID 20173310. The note with it: cited from earlier work.
The subject of test [6] is mitochondrial respiration. Also noted: method as in PMID 7777565. Conditions: in D. discoideum; read-out: IC50 for inhibition (uncoupling) of mitochondrial respiration; cited from earlier work.
For test [7], the system named is calmodulin-dependent cyclic nucleotide phosphodiesterase (PDE1). Also noted: method as in PMID 15059913. Conditions: cited from earlier work.
In test [8] the test system is cyclin D1 and cyclin D3 in HeLa cells. Put plainly: Western blotting of cyclin D expression. Format: cell-based, human. The note with it: 20 h, DIF-3 20 µM, Bu-DIF-3 5–7.5 µM, BODIPY-DIF-3 20 µM, CCCP 10 µM, azide 0.01%. As for the experimental part: HeLa cells were incubated for 20 h with 1 ml of DMEM-FBS containing the indicated additives in 12-well plates (2–4×10^5 cells/well), washed twice with PBS(–), harvested by adding 100–200 µl of an SDS-sample buffer solution (in proportion to cell density: relative cell number), sonicated (heated), and used for SDS-PAGE. Western blot transfer and immunoblotting were performed as described previously, by using a primary antibody for cyclin D1, cyclin D2, cyclin D3, or GAPDH, and a second antibody, an alkaline phosphatase-conjugated anti-mouse or anti-rabbit IgG antibody. […] Visualized protein bands were then digitized and quantified by using Adobe Photoshop CS4 (version 11.0) (Adobe, San Jose, CA, USA) and ImageJ Software (version 1.4) (http://rsb.info.nih.gov/ij/).

For the compound `CCCCNC(=O)CCC1=[N+]2C(=Cc3c(C)cc(C)n3[B-]2(F)F)C=C1` [Bu-BODIPY], the “Effect on basal rate of O2 consumption” value in test [1] (1–100 µM) is listed as “had no effect”. The “PC100 (µM) for Mito. O2 consumption” value in test [1] (100% promoting concentration: doubles the basal rate of oxygen consumption, 30°C) is more than 100 µM. Further, the IC50 in test [2] was more than 20 µM; in test [3], more than 20 µM; in test [4] (Homo sapiens, 72 h, HeLa cells, 3 days, Alamar blue), more than 20 µM. The “Effect on cell growth (relative cell number)” value in test [4] (HeLa, 5–20 µM (Bu-BODIPY up to 20 µM), 3 days) is recorded as “hardly affected”.

As for `CCCCCC(=O)c1c(O)c(Cl)c(OC)c(Cl)c1O` [DIF-1, 1-(3,5-dichloro-2,6-dihydroxy-4-methoxyphenyl)hexan-1-one, reference compound], the “Binding to and inhibition of mMDH” value in test [5] was “binds to mitochondrial malate dehydrogenase (mMDH) and inhibits its activity”. The IC50 in test [6] was 0.54 µM. Besides, the “Effect on cell growth (relative cell number)” value in test [4] (HeLa, 20 µM, 3 days) was “significantly suppressed”. For the same compound, the “Inhibition of PDE1” value in test [7] is recorded as “direct inhibitors of PDE1”.

On to `[N-]=[N+]=[N-].[Na+]` [azide, NaN3, reference compound], for which, in test [4], the “Effect on cell growth (relative cell number)” value is reported as “suppressed cell growth”. Further, in test [8], the “Expression of cyclin D1” value was “suppressed” and the “Expression of cyclin D3” value is “but not of cyclin D3”.
